This assay is described as follows: Relative activity on the cellular accumulation of vincristine in multidrug-resistant (MDR) human ovarian cancer 2780AD cells. Format: functional, A2780 ADR.

`CC(=O)O[C@H]1[C@@H]2[C@H](C)[C@@H](OC(=O)CCc3ccccc3)CC[C@@]2(C)[C@@H](OC(C)=O)[C@H](OC(C)=O)C2=C(C)C(=O)C[C@@H]1C2(C)C` displayed a Relative activity of 44. `C=C1[C@@H](OC(=O)CCC2CCCCC2)CC[C@@]2(C)[C@@H](OC(C)=O)[C@H](OC(C)=O)C3=C(C)C(=O)C[C@@H]([C@@H](OC(C)=O)[C@H]12)C3(C)C` returned a Relative activity of 97. Molecule `C=C1[C@@H](OC(=O)CCc2ccccc2)CC[C@@]2(C)[C@@H](OC(C)=O)[C@H](OC(C)=O)C3=C(C)C(=O)C[C@@H]([C@@H](OC(C)=O)[C@H]12)C3(C)C` displayed a Relative activity of 227. For `C=C1[C@@H](OC(C)=O)CC[C@@]2(C)[C@@H](OC(C)=O)[C@H](OC(C)=O)C3=C(C)C(=O)C[C@@H]([C@@H](OC(C)=O)[C@H]12)C3(C)C`, the Relative activity was 93. `C=C1[C@@H](OC(=O)/C=C/c2ccccc2)CC[C@@]2(C)[C@@H](OC(C)=O)[C@H](OC(C)=O)C3=C(C)C(=O)C[C@@H]([C@@H](OC(C)=O)[C@H]12)C3(C)C` came in with a Relative activity of 77.

As to `CC(=O)O[C@H]1[C@@H]2[C@H](C)[C@@H](OC(=O)/C=C/c3ccccc3)CC[C@@]2(C)[C@@H](OC(C)=O)[C@H](OC(C)=O)C2=C(C)C(=O)C[C@@H]1C2(C)C`, the Relative activity stood at 44. The molecule `CC(=O)O[C@H]1[C@@H]2[C@H](C)[C@@H](O)CC[C@@]2(C)[C@@H](OC(C)=O)[C@H](OC(C)=O)C2=C(C)C(=O)C[C@@H]1C2(C)C` gave a Relative activity of 48. Then `C=C1[C@@H](OCOCc2ccccc2)CC[C@@]2(C)[C@@H](OC(C)=O)[C@H](OC(C)=O)C3=C(C)C(=O)C[C@@H]([C@@H](OC(C)=O)[C@H]12)C3(C)C`, with 158; and `C=C1[C@@H](O)CC[C@@]2(C)[C@@H](OC(C)=O)[C@H](OC(C)=O)C3=C(C)C(=O)C[C@@H]([C@@H](OC(C)=O)[C@H]12)C3(C)C` [TAXININE A], with 64.

As for `COc1ccc(CCN(C)CCCC(C#N)(c2ccc(OC)c(OC)c2)C(C)C)cc1OC` (stereo not given) [VERAPAMIL], the Relative activity was found to be 100.

These data come from ChEMBL document CHEMBL1132679, “Highly increased cellular accumulation of vincristine, a useful hydrophobic antitumor-drug, in multidrug-resistant solid cancer cells induced by a simply reduced taxinine” (1999).
